Results published in patent US20240018123A1, “COMPOUND FOR INHIBITING OR DISINTEGRATING ANDROGEN RECEPTOR, AND PHARMACEUTICAL USE THEREOF” (KOREA RESEARCH INSTITUTE OF CHEMICAL TECHNOLOGY, priority 2020, published 2024).

Each compound was assayed against T1, Androgen receptor (AR) (Homo sapiens, UniProt P10275, T878A) (assay: Assessment of AR proteolytic activity (Western blotting of LNCap cell lysates)). Conditions: 24 hours of treatment, Western blotting quantified with Image J.
T1 construct: 5.5×10^5 LNCap cells were injected into each well of a 6-well plate; endogenous in cells; host or cells: LNCaP
T1 sequence (P10275 1-920 T878A): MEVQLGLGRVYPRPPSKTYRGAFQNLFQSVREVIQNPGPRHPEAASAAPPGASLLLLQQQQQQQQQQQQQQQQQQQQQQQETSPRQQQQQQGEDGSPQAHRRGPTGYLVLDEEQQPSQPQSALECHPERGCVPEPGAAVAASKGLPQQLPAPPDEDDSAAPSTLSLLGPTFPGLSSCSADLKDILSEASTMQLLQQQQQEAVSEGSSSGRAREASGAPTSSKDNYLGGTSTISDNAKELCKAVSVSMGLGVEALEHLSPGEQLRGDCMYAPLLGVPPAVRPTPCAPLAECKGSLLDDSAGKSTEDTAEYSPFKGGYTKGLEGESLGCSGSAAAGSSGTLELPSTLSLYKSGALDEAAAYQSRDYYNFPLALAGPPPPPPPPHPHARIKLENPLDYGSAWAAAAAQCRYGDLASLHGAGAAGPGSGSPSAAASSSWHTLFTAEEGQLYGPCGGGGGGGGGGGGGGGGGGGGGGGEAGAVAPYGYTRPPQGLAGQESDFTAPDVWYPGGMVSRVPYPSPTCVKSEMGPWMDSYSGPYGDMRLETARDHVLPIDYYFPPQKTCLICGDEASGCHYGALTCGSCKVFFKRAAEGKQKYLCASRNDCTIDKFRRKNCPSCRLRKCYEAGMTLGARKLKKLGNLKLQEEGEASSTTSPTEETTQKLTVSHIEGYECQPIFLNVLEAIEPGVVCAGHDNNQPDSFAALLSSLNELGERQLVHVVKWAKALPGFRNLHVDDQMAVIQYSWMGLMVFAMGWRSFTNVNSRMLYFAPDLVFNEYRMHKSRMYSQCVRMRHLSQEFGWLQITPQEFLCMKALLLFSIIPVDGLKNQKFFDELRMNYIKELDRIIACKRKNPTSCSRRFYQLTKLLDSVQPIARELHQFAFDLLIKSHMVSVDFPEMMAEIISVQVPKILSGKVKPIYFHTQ
Format: cell-based
Description: Assessment of AR Proteolytic Activity
Androgen receptor (AR) proteolytic activity of the compound according to the present invention was evaluated as follows: Specifically, 5.5×10^5 LNCap cells were injected into each well of a 6-well plate. […] After 24 hours of treatment, cells were collected and lysed using RIPA Lysis buffer (50 mM Tris-HCl, pH7.5, 150 mM NaCl, 1% Triton X-100, 2 mM EDTA, 0.1% SDS, 0.5% sodium deoxycholate and protease inhibitor cocktail) to make cell lysates. Western blotting was performed, and the results were quantified using Image J program.

| Structure (SMILES) | Degradation (1 μM treated in LNCaP, % AR remaining) [%] |
| --- | --- |
| N#Cc1ccc(OC2CCC(NC(=O)c3ccc(N4CCC(CN5CCN(c6ccc7nnn(C8CCC(=O)NC8=O)c(=O)c7c6)CC5)CC4)nc3)CC2)cc1Cl (stereo not drawn) [Example 160, N-((1r,4r)-4-(3-chloro-4-cyanophenoxy)cyclohexyl)-6-(4-((4-(3-(2,6-dioxopiperidin-3-yl)-4-oxo-3,4-dihydrobenzo[d][1,2,3]triazin-6-yl)piperazin-1-yl)methyl)piperidin-1-yl)nicotinamide] | 31 |
| N#Cc1ccc(O[C@H]2CC[C@@H](NC(=O)c3ccc(N4CCN(CCCOc5ccc6nnn(C7CCC(=O)NC7=O)c(=O)c6c5)CC4)nc3)CC2)cc1Cl (stereo partly drawn) [Example 161, N-((1r,4r)-4-(3-chloro-4-cyanophenoxy)cyclohexyl)-6-(4-(3-((3-(2,6-dioxopiperidin-3-yl)-4-oxo-3,4-dihydrobenzo[d][1,2,3]triazin-6-yl)oxy)propyl)piperazin-1-yl)nicotinamide] | 36 |
| CC1(C)C(NC(=O)c2ccc(N3CCC(CN4CCN(c5ccc6nnn(C7CCC(=O)NC7=O)c(=O)c6c5)CC4)CC3)nc2)C(C)(C)C1Oc1ccc(C#N)c(Cl)c1 (stereo not drawn) [Example 162, N-((1r,3r)-3-(3-chloro-4-cyanophenoxy)-2,2,4,4-tetramethylcyclobutyl)-6-(4-((4-(3-(2,6-dioxopiperidin-3-yl)-4-oxo-3,4-dihydrobenzo[d][1,2,3]triazin-6-yl)piperazin-1-yl)methyl)piperidin-1-yl)nicotinamide] | 30 |
| CC1(C)C(NC(=O)c2ccc(N3CCN(CCCCCOc4ccc5nnn(C6CCC(=O)NC6=O)c(=O)c5c4)CC3)nc2)C(C)(C)C1Oc1ccc(C#N)c(Cl)c1 (stereo not drawn) [Example 163, N-((1r,3r)-3-(3-chloro-4-cyanophenoxy)-2,2,4,4-tetramethylcyclobutyl)-6-(4-(5-((3-(2,6-dioxopiperidin-3-yl)-4-oxo-3,4-dihydrobenzo[d][1,2,3]triazin-6-yl)oxy)pentyl)piperazin-1-yl)nicotinamide] | 10 |
| N#Cc1ccc(OC2CCC(NC(=O)c3ccc(N4CCC(CN5CCN(c6ccc7c(=O)n(C8CCC(=O)NC8=O)nnc7c6)CC5)CC4)nc3)CC2)cc1Cl (stereo not drawn) [Example 164, N-((1r,4r)-4-(3-chloro-4-cyanophenoxy)cyclohexyl)-6-(4-((4-(3-(2,6-dioxopiperidin-3-yl)-4-oxo-3,4-dihydrobenzo[d][1,2,3]triazin-7-yl)piperazin-1-yl)methyl)piperidin-1-yl)nicotinamide] | 13 |
| CC1(C)C(NC(=O)c2ccc(N3CCC(CN4CCN(c5ccc6c(=O)n(C7CCC(=O)NC7=O)nnc6c5)CC4)CC3)cc2)C(C)(C)C1Oc1ccc(C#N)c(Cl)c1 (stereo not drawn) [Example 165, N-((1r,3r)-3-(3-chloro-4-cyanophenoxy)-2,2,4,4-tetramethylcyclobutyl)-4-(4-((4-(3-(2,6-dioxopiperidin-3-yl)-4-oxo-3,4-dihydrobenzo[d][1,2,3]triazin-7-yl)piperazin-1-yl)methyl)piperidin-1-yl)benzamide] | 8 |
| CC1(C)C(NC(=O)c2ccc(N3CCC(CN4CCN(c5ccc6nnn(C7CCC(=O)NC7=O)c(=O)c6c5)CC4)CC3)cc2)C(C)(C)C1Oc1ccc(C#N)c(Cl)c1 (stereo not drawn) [Example 166, N-((1r,3r)-3-(3-chloro-4-cyanophenoxy)-2,2,4,4-tetramethylcyclobutyl)-4-(4-((4-(3-(2,6-dioxopiperidin-3-yl)-4-oxo-3,4-dihydrobenzo[d][1,2,3]triazin-6-yl)piperazin-1-yl)methyl)piperidin-1-yl)benzamide] | 13 |
| N#Cc1ccc(O[C@H]2CC[C@@H](NC(=O)c3ccc(N4CCC(CN5CC6(CCN(c7ccc8c(=O)n(C9CCC(=O)NC9=O)nnc8c7)CC6)C5)CC4)nc3)CC2)cc1Cl (stereo partly drawn) [Example 167, N-((1r,4r)-4-(3-chloro-4-cyanophenoxy)cyclohexyl)-6-(4-((7-(3-(2,6-dioxopiperidin-3-yl)-4-oxo-3,4-dihydrobenzo[d][1,2,3]triazin-7-yl)-2,7-diazaspiro[3.5]nonan-2-yl)methyl)piperidin-1-yl)nicotinamide] | 19 |
| N#Cc1ccc(O[C@H]2CC[C@H](NC(=O)c3ccc(N4CCC(CN5CC6(CCN(c7ccc8nnn(C9CCC(=O)NC9=O)c(=O)c8c7)CC6)C5)CC4)nc3)CC2)cc1Cl (stereo partly drawn) [Example 168, N-((1r,4r)-4-(3-chloro-4-cyanophenoxy)cyclohexyl)-6-(4-((7-(3-(2,6-dioxopiperidin-3-yl)-4-oxo-3,4-dihydrobenzo[d][1,2,3]triazin-6-yl)-2,7-diazaspiro[3.5]nonan-2-yl)methyl)piperidin-1-yl)nicotinamide] | 10 |
| CC1(C)C(NC(=O)c2ccc(N3CCC(CN4CC5(CCN(c6ccc7c(=O)n(C8CCC(=O)NC8=O)nnc7c6)CC5)C4)CC3)nc2)C(C)(C)C1Oc1ccc(C#N)c(Cl)c1 (stereo not drawn) [Example 169, N-((1r,3r)-3-(3-chloro-4-cyanophenoxy)-2,2,4,4-tetramethylcyclobutyl)-6-(4-((7-(3-(2,6-dioxopiperidin-3-yl)-4-oxo-3,4-dihydrobenzo[d][1,2,3]triazin-7-yl)-2,7-diazaspiro[3.5]nonan-2-yl)methyl)piperidin-1-yl)nicotinamide] | 16 |
| CC1(C)C(NC(=O)c2ccc(N3CCC(CN4CC5(CCN(c6ccc7nnn(C8CCC(=O)NC8=O)c(=O)c7c6)CC5)C4)CC3)nc2)C(C)(C)C1Oc1ccc(C#N)c(Cl)c1 (stereo not drawn) [Example 170, N-((1r,3r)-3-(3-chloro-4-cyanophenoxy)-2,2,4,4-tetramethylcyclobutyl)-6-(4-((7-(3-(2,6-dioxopiperidin-3-yl)-4-oxo-3,4-dihydrobenzo[d][1,2,3]triazin-6-yl)-2,7-diazaspiro[3.5]nonan-2-yl)methyl)piperidin-1-yl)nicotinamide] | 16 |
| CC1(C)[C@H](NC(=O)c2ccc(N3CCC(CN4CCC5(CC4)CN(c4ccc6c(=O)n(C7CCC(=O)NC7=O)nnc6c4)C5)CC3)nc2)C(C)(C)[C@H]1Oc1ccc(C#N)c(Cl)c1 (stereo partly drawn) [Example 171, N-((1r,3r)-3-(3-chloro-4-cyanophenoxy)-2,2,4,4-tetramethylcyclobutyl)-6-(4-((2-(3-(2,6-dioxopiperidin-3-yl)-4-oxo-3,4-dihydrobenzo[d][1,2,3]triazin-7-yl)-2,7-diazaspiro[3.5]nonan-7-yl)methyl)piperidin-1-yl)nicotinamide] | 11 |
| CC1(C)[C@H](NC(=O)c2ccc(N3CCC(CN4CCC5(CC4)CN(c4ccc6nnn(C7CCC(=O)NC7=O)c(=O)c6c4)C5)CC3)nc2)C(C)(C)[C@H]1Oc1ccc(C#N)c(Cl)c1 (stereo partly drawn) [Example 172, N-((1r,3r)-3-(3-chloro-4-cyanophenoxy)-2,2,4,4-tetramethylcyclobutyl)-6-(4-((2-(3-(2,6-dioxopiperidin-3-yl)-4-oxo-3,4-dihydrobenzo[d][1,2,3]triazin-6-yl)-2,7-diazaspiro[3.5]nonan-7-yl)methyl)piperidin-1-yl)nicotinamide] | 7 |
| CC1(C)C(NC(=O)c2ccc(N3CCC4(CC3)CN(CC3CCN(c5ccc6c(=O)n(C7CCC(=O)NC7=O)nnc6c5)CC3)C4)nc2)C(C)(C)C1Oc1ccc(C#N)c(Cl)c1 (stereo not drawn) [Example 173, N-((1r,3r)-3-(3-chloro-4-cyanophenoxy)-2,2,4,4-tetramethylcyclobutyl)-6-(2-((1-(3-(2,6-dioxopiperidin-3-yl)-4-oxo-3,4-dihydrobenzo[d][1,2,3]triazin-7-yl)piperidin-4-yl)methyl)-2,7-diazaspiro[3.5]nonan-7-yl)nicotinamide] | 9 |
| CC1(C)C(NC(=O)c2ccc(N3CCC4(CC3)CN(CC3CCN(c5ccc6nnn(C7CCC(=O)NC7=O)c(=O)c6c5)CC3)C4)nc2)C(C)(C)C1Oc1ccc(C#N)c(Cl)c1 (stereo not drawn) [Example 174, N-((1r,3r)-3-(3-chloro-4-cyanophenoxy)-2,2,4,4-tetramethylcyclobutyl)-6-(2-((1-(3-(2,6-dioxopiperidin-3-yl)-4-oxo-3,4-dihydrobenzo[d][1,2,3]triazin-6-yl)piperidin-4-yl)methyl)-2,7-diazaspiro[3.5]nonan-7-yl)nicotinamide] | 15 |
